Measurements: patent US20240140949A1, “ANTI-CANCER PHARMACEUTICAL COMPOSITION FOR TARGETING HEAT SHOCK PROTEIN 70, CONTAINING INDOLOQUINAZOLIDINE ALKALOID” (SEOUL NATIONAL UNIVERSITY R & DB FOUNDATION, priority 2021, published 2024)

Legend:
cancer cell = experiment: Cancer cell survival inhibitory activity (crystal violet assay); format: cell-based; conditions: crystal violet assay (FIG. 19)
Method: (§1) The cancer cell lines were seeded in a 96-well plate at a density of 2×10^3 cells per well and cultured for 24 hours to allow the cells to attach. The cells were then treated with diluted drugs in media for 3 days and cell viability was assessed using MTT assay or crystal violet (CB) assay. For the MTT assay, MTT solution dissolved in PBS was added to achieve a final concentration of 500 μg/mL and incubated for 2-4 hours, after which the medium was removed and the formed formazan was dissolved in 100% DMSO, followed by measuring the absorbance at 570 nm. For the CB assay, the cultured cells were fixed with 100% methanol, stained with a 0.025% crystal violet solution, dissolved in 1% SDS solution, and the absorbance was measured at 570 nm. Cell viability was calculated as the percentage of absorbance change in drug-treated group compared to vehicle (DMSO) treated control group.

[1] = test system: cancer cell lines of various origins; experiment: Anchorage-dependent colony formation in cancer cell lines of various origins; format: cell-based, human; conditions: 50 nM, 2 weeks (FIG. 3)
From the text: Human lung cancer cell lines (H1299, H460, A549, H226B, and PC9), breast cancer cell line (MDA-MB-231), liver cancer cell line (Hep3B), kidney cancer cell line (786-0), prostate cancer cell lines (DU145 and PC-3), and mouse lung cancer cell line (Lewis Lung Carcinoma, LLC) were purchased from ATCC (American Type Culture Collection) or obtained from Dr. John V. Heymach of MD Anderson Cancer Center, USA. The human head and neck cancer cell line (UMSCC38) was obtained from Dr. Jeffrey N. Myers (MD Anderson Cancer Center, USA). Human colon cancer cell lines (HCT116 and HT-29) and glioblastoma cell line (U87MG) were obtained from Professor Sang Kook Lee (Seoul National University College of Pharmacy). The human kidney cancer cell line (Caki-1), and gastric cancer cell line (SNU-638) were purchased from the Korean Cell Line Bank. […]
Cancer cell lines were seeded in a 24-well or 6-well plate at 100-250 cells per well and allowed to attach, followed by treatment with drugs diluted in media and cultured for 2-3 weeks. Formed colonies were stained with crystal violet and counted. The drug's colony formation inhibitory effect was calculated as the percentage of colony number change in the drug-treated group compared to the vehicle (DMSO)-treated control group.

LLC-Luc tumors = experiment: Survival in LLC-Luc transplant allograft (lung metastasis) model; format: in vivo, mouse; conditions: C57BL/6 mice, 20 mg/kg orally six times a week (FIG. 8)
Method: (§2) H460 cells (5×10^6 cells/spot) or lung cancer patient-derived tumors were implanted into the flank of 6-week-old NOD/SCID mice, or LLC-Luc cells (5×10^5 cells/spot) were implanted into the flank of 8-week-old C57BL/6 mice to form tumors. When the tumor volume reached 50-100 mm^3, the mice were divided into control and experimental groups (with at least 6 mice assigned to each group), and the control group was administered with vehicle (10% DMSO and 40% PEG400 solution prepared in sterile distilled water), while the experimental group was administered with EV507 (20 mg/kg) six times a week orally. The major and minor axes of the tumor were measured, and the tumor size was measured at least 3-4 times a week, and the body weight was measured at least once a week to evaluate the toxicity of the drug. Also, the survival of C57BL/6 mice implanted with LLC-Luc cells was monitored to determine the survival curve. The tumor volume was calculated as (width)^2× length×0.5.
Moreover, it is known that in the LLC-Luc transplant allograft model that spontaneously generates pulmonary metastatic cancer, mouse mortality occurs due to the proliferation of transplanted LLC-Luc tumors and the formation of pulmonary metastatic cancer. In this allograft model, EV507 was administered to confirm its inhibitory effect on mouse mortality caused by tumor proliferation.

H1299 lung cancer cells = experiment: Cell viability (MTT assay) in H1299 cells; format: cell-based, human; conditions: 100 nM, 3 days, MTT, compared with evodiamine and EV501-EV509 (FIG. 1)
From the text: Human lung cancer cell lines (H1299, H460, A549, H226B, and PC9), breast cancer cell line (MDA-MB-231), liver cancer cell line (Hep3B), kidney cancer cell line (786-0), prostate cancer cell lines (DU145 and PC-3), and mouse lung cancer cell line (Lewis Lung Carcinoma, LLC) were purchased from ATCC (American Type Culture Collection) or obtained from Dr. John V. Heymach of MD Anderson Cancer Center, USA. The human head and neck cancer cell line (UMSCC38) was obtained from Dr. Jeffrey N. Myers (MD Anderson Cancer Center, USA). Human colon cancer cell lines (HCT116 and HT-29) and glioblastoma cell line (U87MG) were obtained from Professor Sang Kook Lee (Seoul National University College of Pharmacy). The human kidney cancer cell line (Caki-1), and gastric cancer cell line (SNU-638) were purchased from the Korean Cell Line Bank. The chemotherapy-resistant cells [paclitaxel-resistant H460 cells (H460/PcR), paclitaxel-resistant H226B cells (H226B/PcR), cisplatin-resistant H1299 cells (H1299/CsR), pemetrexed-resistant H1299 cells (H1299/PmR)] and molecularly targeted anticancer therapy-resistant cells [erlotinib-resistant PC9 cells (PC9/ER)] were constructed by treating the respective anti-cancer drugs for more than three months. H1299, H460, H226B, PC9, Hep3B, 786-0, DU145, PC-3, HCT116, HT-29, SNU-638, chemotherapeutic resistant cells, and molecularly targeted anticancer therapy-resistant cells were cultured in RPMI 1640 media containing 10% fetal bovine serum (FBS) and antibiotics at 37° C. under 5% CO2 conditions, while MDA-MB-231, UMSCC38, U87MG, Caki-1 were cultured in DMEM media containing 10% FBS and antibiotics at 37° C. under 5% CO2 conditions. Cells were passaged 1-2 times per week.
as §1

H460 xenograft tumors = experiment: H460 xenograft tumor growth in NOD/SCID mice; format: in vivo, mouse; conditions: 20 mg/kg orally six times a week, vs control group (FIG. 7)
Method: as §2

[2] = test system: cancer cells derived from various origins; experiment: Cell viability (MTT or crystal violet assay) in cancer cell lines of various origins; format: cell-based, human; conditions: various concentrations, 3 days, cancer cells of various origins (FIG. 2)
From the text: Human lung cancer cell lines (H1299, H460, A549, H226B, and PC9), breast cancer cell line (MDA-MB-231), liver cancer cell line (Hep3B), kidney cancer cell line (786-0), prostate cancer cell lines (DU145 and PC-3), and mouse lung cancer cell line (Lewis Lung Carcinoma, LLC) were purchased from ATCC (American Type Culture Collection) or obtained from Dr. John V. Heymach of MD Anderson Cancer Center, USA. The human head and neck cancer cell line (UMSCC38) was obtained from Dr. Jeffrey N. Myers (MD Anderson Cancer Center, USA). […]
as §1, with “Cell viability was calculated as the percentage of absorbance change in drug-treated group compared to vehicle (DMSO) treated control group.” left out

lung cancer cell = experiment: Cancer cell survival inhibitory activity (MTT assay) of EV501 to EV509; format: cell-based; conditions: 0.5 μM (lowest concentration), MTT assay (FIG. 18)
Method: as §1

## C=CCN1c2ccccc2C(=O)N2CCc3c([nH]c4ccc(O)cc34)C21 (stereo not shown) [EV507]
Cancer cell
  cancer cell survival inhibitory activity: excellent
[1]
  formation of colonies under anchorage-dependent conditions: significantly inhibited
LLC-Luc tumors
  mouse mortality: significantly reduced
H1299 lung cancer cells
  inhibition of cancer cell survival (cell viability): most excellent efficacy
H460 xenograft tumors
  tumor growth: significantly inhibited
[2]
  anti-cancer survival inhibition efficacy: concentration-dependent anti-cancer survival inhibition efficacy
Lung cancer cell
  inhibition at 0.5 µM: > 65%
